The target of this experiment is Cx50 (Mus musculus, UniProt P28236). It is filed as biochemical.

Molecules are shown by their SMILES. pIC50: −log10 of the molar value.

The pIC50 is the negative decadic logarithm of the IC50, by convention in mol/L. Read a low pIC50 as a high IC50.

Chain of Cx50 (P28236 2-440): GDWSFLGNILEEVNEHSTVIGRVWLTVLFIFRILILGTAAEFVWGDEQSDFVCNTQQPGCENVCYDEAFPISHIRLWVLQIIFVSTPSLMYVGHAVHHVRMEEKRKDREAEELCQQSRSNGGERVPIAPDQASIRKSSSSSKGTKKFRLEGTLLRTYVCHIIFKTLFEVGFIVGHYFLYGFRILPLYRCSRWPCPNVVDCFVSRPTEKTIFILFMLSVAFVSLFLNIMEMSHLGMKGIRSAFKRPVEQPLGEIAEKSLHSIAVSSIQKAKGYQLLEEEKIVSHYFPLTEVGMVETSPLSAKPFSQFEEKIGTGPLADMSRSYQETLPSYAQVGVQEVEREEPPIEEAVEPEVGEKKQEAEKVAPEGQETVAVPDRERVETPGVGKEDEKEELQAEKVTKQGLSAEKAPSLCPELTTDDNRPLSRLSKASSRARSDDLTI

The compound `C=C[C@H]1C[N+]2(Cc3ccccc3)CC[C@H]1C[C@H]2[C@H](O)c1ccnc2ccc(OC)cc12` [BQ+, N-benzylquininium] had a pIC50 of 3.47.

Values taken from paper PMC3250100 (The Journal of General Physiology, 2012).
